According to patent publication US11576930B2, “Methods and compositions for treatment of multi-drug resistant tumors” (priority 2017, dated 2023):

Legend:
HCC97L cells [1] = assay: Cell morphology and MTT cytotoxicity of agent alone; format: cell-based, human; set-up: dose or concentration left out as unconfirmed; settings: AZI
Description: (§1) Then, HCC97L (3×10^3 well^−1), Hep3B (4×10^3 well^−1), PLC (4×10^3 well^−1), CNE1 (1.75×10^3 well^−1), CNE2 (3.5×10^3 well^−1), HONE1 (2×10^3 well^−1) and SUNE1 (2×10^3 well^−1) were seeded in 96-well plates ([…]) and allowed to attach for 24 h. After that, human liver cancer cell lines were treated with 3 chemotherapeutic drugs separately at different concentrations (as indicated in FIG. 2) in the presence of the anti-mycoplasma antibiotics for 48 h. […] In the P37-ANXA2 interruption experiment, A2PP was dissolved in DMSO and HCC97L cells were pretreated with A2PP (as indicated in FIG. 3) 24 h before GEM or MX treatment. […] (5 mg/ml final concentration; MP Biomedicals, LLC, CA, USA) was added to each well. After 4 h incubation at 37° C., the medium was removed and 100 μL/well DMSO (GBCBIO Technologies, Guangzhou, China) was added. The plates were mixed by a thermomixer for 5 min at RT. Absorbance measures were made in a microplate reader (iMark, Bio-Rad Laboratories, CA, USA) at 570/655 nm.

Hep3B = assay: as above; format: cell-based, human; set-up: dose or concentration left out as unconfirmed; settings: AZI
Description: Then, HCC97L (3×10^3 well^−1), Hep3B (4×10^3 well^−1), PLC (4×10^3 well^−1), CNE1 (1.75×10^3 well^−1), CNE2 (3.5×10^3 well^−1), HONE1 (2×10^3 well^−1) and SUNE1 (2×10^3 well^−1) were seeded in 96-well plates (1004/well) and allowed to attach for 24 h. After that, human liver cancer cell lines were treated with 3 chemotherapeutic drugs separately at different concentrations (as indicated in FIG. 2) in the presence of the anti-mycoplasma antibiotics for 48 h. […] 104 of MTT (5 mg/ml final concentration; MP Biomedicals, LLC, CA, USA) was added to each well. After 4 h incubation at 37° C., the medium was removed and 100 μL/well DMSO (GBCBIO Technologies, Guangzhou, China) was added. The plates were mixed by a thermomixer for 5 min at RT. Absorbance measures were made in a microplate reader (iMark, Bio-Rad Laboratories, CA, USA) at 570/655 nm.

PLC/PRF/5 cell line = assay: MTT assay, sensitivity to chemotherapeutic drugs with anti-mycoplasma antibiotics; format: cell-based, human; settings: non-cytotoxic concentration of MXF or AZI; chemotherapeutic 48 h
Description: as §1

Hep3B cells = assay: as above; format: cell-based, human; settings: non-cytotoxic concentration of MXF or AZI; chemotherapeutic 48 h
Description: as §1

mycoplasma = assay: Mycoplasma detection using quantitative real-time PCR in cancer cell lines; format: cell-based; set-up: dose or concentration left out as unconfirmed; settings: AZI
Description: Total DNA was extracted from 5×10^5 cells from each group by digestion at 70° C. for 10 min in 0.5% Tween-20, 50 mM Tris (pH 8.5), 1 mM EDTA, and 200 mg/L proteinase K, followed by phenol/chloroform/isoamyl alcohol extraction and sodium acetate precipitation. DNA precipitates were washed with 70% ethanol, dried, and dissolved in 20 μL of sterile water. The extracted DNA ([…], 1.2 μg) from the cells was added to […] of the reaction solution, containing PCR buffer (SuperRealPreMix, SYBR Green; Tiangen Biotech, Beijing, China) and primers pairs for mycoplasma detection and reference control (β-actin) with a final concentration of 0.12 μM for each primer, to a total volume of 10 μL. Quantitative real-time PCR (qPCR) was performed as the following profile: 95° C. for 1 min (preincubation), followed by 40 cycles at 95° C. for 10 s (denaturation), 60° C. for 30 s (annealing and elongation). The primers (Table 1) for mycoplasma detection were gifts from Prof. Zhongning Lin (School of Public Health, Xiamen University) including two forward primers for universal mycoplasmal detection, one forward primer to detect Myco M. pirum., one for Myco A. laidlawii. detection and a mix of degenerate primers to work as the reverse primers.

HCC97L cells [2] = assay: MTT assay, sensitivity to chemotherapeutic drugs with anti-mycoplasma agent or A2PP; format: cell-based, human; settings: non-cytotoxic concentration of MXF or AZI; chemotherapeutic 48 h
Description: as §1

CNE2 = format: cell-based, human
Description: as §1

SUNE1 cells = format: cell-based, human
Description: as §1

HONE1 cells = format: cell-based, human
Description: as §1

CC[C@H]1OC(=O)[C@H](C)[C@@H](O[C@H]2C[C@@](C)(OC)[C@@H](O)[C@H](C)O2)[C@H](C)[C@@H](O[C@@H]2O[C@H](C)C[C@H](N(C)C)[C@H]2O)[C@](C)(O)C[C@@H](C)CN(C)[C@H](C)[C@@H](O)[C@]1(C)O [AZI, azithromycin]
toxicity to cells (cell morphology and MTT assay) (HCC97L cells [1]): non-toxic
toxicity to cells (cell morphology and MTT assay) (Hep3B): non-toxic
efficacy of the anti-tumor drugs (CDDP, GEM, MX) in PLC/PRF/5 cell line (PLC/PRF/5 cell line): neither MXF nor AZI improved the efficacy
sensitivity of Hep3B cells to GEM (Hep3B cells): enhanced
sensitivity of Hep3B cells to MX (Hep3B cells): enhanced
anti-mycoplasma effect (Real Time PCR) (mycoplasma; HCC97L cells): removed mycoplasma significantly
anti-mycoplasma effect (Real Time PCR) (mycoplasma; Hep3B cells): removed mycoplasma significantly
anti-mycoplasma effect (Real Time PCR) (mycoplasma; PLC/PRF/5 cell line): mycoplasma remained intact
sensitivity of HCC97L cells to CDDP (HCC97L cells [2]): enhanced
sensitivity of HCC97L cells to GEM (HCC97L cells [2]): enhanced
sensitivity of HCC97L cells to MX (HCC97L cells [2]): enhanced

COc1c(N2C[C@@H]3CCCN[C@@H]3C2)c(F)cc2c(=O)c(C(=O)O)cn(C3CC3)c12 [MXF, Moxifloxacin]
sensitivity of CNE2 cells to 5-FU (CNE2): enhanced
sensitivity of SUNE1 cells to 5-FU (SUNE1 cells): improved
sensitivity of HONE1 cells to 5-FU (HONE1 cells): enhanced
